The source of these data is ChEMBL document CHEMBL1926654, “Design and synthesis of novel β-diketo derivatives as HIV-1 integrase inhibitors” (Bioorg Med Chem, 2012).

Data set [1] addresses Human immunodeficiency virus type 1 integrase (Human immunodeficiency virus 1, UniProt Q7ZJM1). Nature of the data set: Inhibition of Human immunodeficiency virus 1 integrase-mediated strand transfer activity after 1 hr.
Data set [2] concerns Human immunodeficiency virus 1. The data set is described as follows: Antiviral activity against Human immunodeficiency virus 1 infected in human TZM-bl cells assessed as inhibition of viral replication after 48 hrs by inverted microscopic analysis. The note with it: Human immunodeficiency virus 1, TZM-bl. It is filed as functional, organism-based.
The nature of data set [3]: Cytotoxicity against human TZM-bl cells after 48 hrs by MTT assay. It is filed as cell-based.
Data set [4] can be described thus: Therapeutic index, ratio of CC50 for human TZM-bl cells to EC50 for Human immunodeficiency virus 1. The data set is classed as cell-based. Conditions: read-out: Ratio CC50/EC50.

Human immunodeficiency virus type 1 integrase, sequence (Q7ZJM1 whole entry): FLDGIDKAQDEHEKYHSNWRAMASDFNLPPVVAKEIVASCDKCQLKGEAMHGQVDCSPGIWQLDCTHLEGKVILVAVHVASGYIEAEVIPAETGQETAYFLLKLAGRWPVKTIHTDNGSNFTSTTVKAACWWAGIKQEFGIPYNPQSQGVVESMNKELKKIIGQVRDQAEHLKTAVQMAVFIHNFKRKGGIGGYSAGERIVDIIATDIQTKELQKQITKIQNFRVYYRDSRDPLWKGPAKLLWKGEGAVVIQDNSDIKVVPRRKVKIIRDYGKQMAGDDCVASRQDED

On to `COc1ccc(/C(O)=C/C(=O)c2nnn(Cc3ccc(F)cc3)c2C)cc1OC`, for which the IC50 in data set [1] is greater than 50 µM.

In data set [1], `Cc1c(C(=O)/C=C(\O)c2ccc(O)c(O)c2)nnn1Cc1cccc(F)c1` registered a 50% inhibitory concentration (IC50) of 32 µM.

`COc1ccc(/C(O)=C/C(=O)c2nnn(Cc3cccc(F)c3)c2C)cc1`: in data set [1], the IC50 was greater than 54 µM. For `Cc1nnc(C(=O)NC(C)(C)c2nc(C(=O)NCc3ccc(F)cc3)c(O)c(=O)n2C)o1`, in data set [2], the EC50 was found to be 0.025 µM. In data set [3], the CC50 at 48 h was greater than 30 µM. Turning to `Cc1c(C(=O)/C=C(\O)c2ccccc2)nnn1Cc1ccc(F)cc1`, the IC50 in data set [1] was greater than 59 µM.

For the molecule `COc1cc(/C(O)=C/C(=O)c2nnn(Cc3cccc(F)c3)c2C)cc(OC)c1OC`, the IC50 in data set [1] was greater than 47 µM. Take `COc1ccc(/C(O)=C/C(=O)c2nnn(Cc3cccc(F)c3)c2C)cc1OC`: the IC50 in data set [1] was greater than 50 µM. In data set [1], `COc1cc(/C(O)=C/C(=O)c2nnn(Cc3ccc(F)cc3)c2C)cc(OC)c1OC` returned an IC50 greater than 47 µM. In data set [1], `COc1ccc(/C(O)=C/C(=O)c2nnn(Cc3ccc(F)cc3)c2C)cc1` yielded an IC50 greater than 54 µM. On the same count and under the same terms, the same measure for `Cc1c(C(=O)/C=C(\O)c2ccc(O)cc2)nnn1Cc1cccc(F)c1`: greater than 56 µM; for `Cc1c(C(=O)/C=C(\O)c2ccc(O)cc2)nnn1Cc1ccc(F)cc1`: greater than 56 µM.

For `Cc1c(C(=O)/C=C(\O)c2cc(O)c(O)c(O)c2)nnn1Cc1cccc(F)c1`, the 50% inhibitory concentration (IC50) in data set [1] is 0.78 µM. Also, the concentration for a half-maximal effect (EC50) in data set [2] is 7.32 µM. The molecule also showed a CC50 at 48 h in data set [3] of 36.6 µM. The selectivity ratio in data set [4] came out at 5. For the molecule `Cc1c(C(=O)/C=C(\O)c2ccccc2)nnn1Cc1cccc(F)c1`, the IC50 in data set [1] is greater than 59 µM. In data set [1], `Cc1c(C(=O)/C=C(\O)c2ccc(O)c(O)c2)nnn1Cc1ccc(F)cc1` showed an IC50 of 40 µM. Regarding `Cc1c(C(=O)/C=C(\O)c2cc(O)c(O)c(O)c2)nnn1Cc1ccc(F)cc1`, the IC50 in data set [1] worked out at 2.6 µM. Moreover, the EC50 in data set [2] came out at 8.92 µM. The CC50 at 48 h in data set [3] was found to be 33.4 µM. The selectivity ratio in data set [4] came to 3.7.
